# Results reported in patent publication US4503060A, “3-Imino-3H-dibenzo-[c,f]-imidazo-[1,5-a]azepine pharmaceuticals” (Boehringer Ingelheim KG, priority 1981, dated 1985).
# Experiments:
# [1] = test system: passive cutaneous anaphylaxis (PCA); test: passive cutaneous anaphylaxis (PCA) in rats after passive sensitization with IgE antibodies and antigen provocation; format: in vivo; settings: po; Rat
# Method: (a) Tests on allergized rats were carried out after passive sensitization of the animals with IgE antibodies and subsequent antigen provocation. In this way, passive cutaneous anaphylaxis (PCA) was produced (Goose et al [1969]: Immunology 16, 749).
# [2] = in vivo; settings: mouse, po
# [3] = test system: histamine wheal; test: histamine wheal (antihistaminic activity) in rats, Evans Blue extravasation; format: in vivo
# From the text: (b) Antihistaminic activity:
# The results were quantified by measuring the wheal after extravasation of Evans Blue dye into the skin.
smiles,measurement,setting,value
"Br.Cn1cc2n(c1=N)-c1ccccc1Cc1ccccc1-2 [Example 2, 2-Methyl-3-imino-2,3-dihydro-9H-dibenz-[c,f]-imidazo-[1,5-a]-azepine hydrobromide]",ED50,[1],1.1 mg/kg
same,LD50,[2],280 mg/kg
same,Histamine Wheal (rat) i.v.,[3]; i.v.,0.07
same,Histamine Wheal (rat) p.o.,[3]; p.o.,2.7
